Experimental data published in PubChem BioAssay (NCI).
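How tested: cells in 96-well plates exposed to compound for 48 hours at five concentrations. GI50 marks 50% less growth. TGI denotes the concentration required for complete inhibition of growth.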

How the values were obtained:
Assay in all cases: DTP human tumour cell line panel, 48 h
786-0 renal = tested on: 786-0 renal
HS 578T breast = tested on: HS 578T breast
BT-549 breast = tested on: BT-549 breast
OVCAR-8 ovarian = tested on: OVCAR-8 ovarian
KM12 colon = tested on: KM12 colon
SW-620 colon = tested on: SW-620 colon
SR leukemia = tested on: SR leukemia
SN12C renal = tested on: SN12C renal
UACC-257 melanoma = tested on: UACC-257 melanoma
HOP-62 NSCLC = tested on: HOP-62 NSCLC
EKVX NSCLC = tested on: EKVX NSCLC
HCC-2998 colon = tested on: HCC-2998 colon
A549 NSCLC = tested on: A549 NSCLC
UO-31 renal = tested on: UO-31 renal
CAKI-1 renal = tested on: CAKI-1 renal
SNB-19 CNS = tested on: SNB-19 CNS
RXF 393 renal = tested on: RXF 393 renal
HOP-92 NSCLC = tested on: HOP-92 NSCLC
MDA-MB-435 = tested on: MDA-MB-435
NCI-H460 lung = tested on: NCI-H460 lung
SK-OV-3 ovarian = tested on: SK-OV-3 ovarian
OVCAR-5 ovarian = tested on: OVCAR-5 ovarian
DU-145 prostate = tested on: DU-145 prostate
K-562 leukemia = tested on: K-562 leukemia
RPMI-8226 leukemia = tested on: RPMI-8226 leukemia
NCI-H23 lung = tested on: NCI-H23 lung
TK-10 renal = tested on: TK-10 renal
ACHN renal = tested on: ACHN renal
LOX IMVI melanoma = tested on: LOX IMVI melanoma
U251 CNS = tested on: U251 CNS
UACC-62 melanoma = tested on: UACC-62 melanoma
OVCAR-3 ovarian = tested on: OVCAR-3 ovarian
NCI/ADR-RES ovarian = tested on: NCI/ADR-RES ovarian
HCT-116 colon = tested on: HCT-116 colon
HCT-15 colon = tested on: HCT-15 colon
MDA-MB-231 breast = tested on: MDA-MB-231 breast
M14 melanoma = tested on: M14 melanoma
PC-3 prostate = tested on: PC-3 prostate
OVCAR-4 ovarian = tested on: OVCAR-4 ovarian
SF-295 CNS = tested on: SF-295 CNS
HL-60(TB) leukemia = tested on: HL-60(TB) leukemia
NCI-H522 lung = tested on: NCI-H522 lung
SK-MEL-2 melanoma = tested on: SK-MEL-2 melanoma
MCF7 breast = tested on: MCF7 breast
SF-268 CNS = tested on: SF-268 CNS
SK-MEL-5 melanoma = tested on: SK-MEL-5 melanoma
COLO 205 colon = tested on: COLO 205 colon
T-47D breast = tested on: T-47D breast
SF-539 CNS = tested on: SF-539 CNS
IGROV1 ovarian = tested on: IGROV1 ovarian
SK-MEL-28 melanoma = tested on: SK-MEL-28 melanoma

Compound: CCCCCCC#Cc1ccccc1C#CCO
- GI50 (786-0 renal): 31.3 µM
- TGI (786-0 renal): 96.1 µM
- GI50 (HS 578T breast): 17.2 µM
- TGI (HS 578T breast): 39.4 µM
- GI50 (BT-549 breast): 17 µM
- TGI (BT-549 breast): 32.9 µM
- GI50 (OVCAR-8 ovarian): 21.7 µM
- TGI (OVCAR-8 ovarian): 46.8 µM
- GI50 (KM12 colon): 18.6 µM
- TGI (KM12 colon): 37.6 µM
- GI50 (SW-620 colon): 20.1 µM
- TGI (SW-620 colon): 38 µM
- GI50 (SR leukemia): 39.9 µM
- TGI (SR leukemia): > 100 µM
- GI50 (SN12C renal): 19.4 µM
- TGI (SN12C renal): 39.7 µM
- GI50 (UACC-257 melanoma): 26.5 µM
- TGI (UACC-257 melanoma): 62.7 µM
- GI50 (HOP-62 NSCLC): 22.4 µM
- TGI (HOP-62 NSCLC): 48.3 µM
- GI50 (EKVX NSCLC): 21.9 µM
- TGI (EKVX NSCLC): 50.6 µM
- GI50 (HCC-2998 colon): 23.7 µM
- TGI (HCC-2998 colon): 42.6 µM
- GI50 (A549 NSCLC): 20.7 µM
- TGI (A549 NSCLC): 49 µM
- GI50 (UO-31 renal): 18.8 µM
- TGI (UO-31 renal): 38.6 µM
- GI50 (CAKI-1 renal): 14.6 µM
- TGI (CAKI-1 renal): 33.2 µM
- GI50 (SNB-19 CNS): 16.3 µM
- TGI (SNB-19 CNS): 31.7 µM
- GI50 (RXF 393 renal): 16.6 µM
- TGI (RXF 393 renal): 32.9 µM
- GI50 (HOP-92 NSCLC): 13.8 µM
- TGI (HOP-92 NSCLC): 26.7 µM
- GI50 (MDA-MB-435): 18.4 µM
- TGI (MDA-MB-435): 37.2 µM
- GI50 (NCI-H460 lung): 32.8 µM
- TGI (NCI-H460 lung): > 100 µM
- GI50 (SK-OV-3 ovarian): 18.4 µM
- TGI (SK-OV-3 ovarian): 34.4 µM
- GI50 (OVCAR-5 ovarian): 38.7 µM
- TGI (OVCAR-5 ovarian): > 100 µM
- GI50 (DU-145 prostate): 17.7 µM
- TGI (DU-145 prostate): 36.3 µM
- GI50 (K-562 leukemia): 28.8 µM
- TGI (K-562 leukemia): > 100 µM
- GI50 (RPMI-8226 leukemia): 15 µM
- TGI (RPMI-8226 leukemia): 31.4 µM
- GI50 (NCI-H23 lung): 3.69 µM
- TGI (NCI-H23 lung): 9.74 µM
- GI50 (TK-10 renal): 22.6 µM
- TGI (TK-10 renal): 61.4 µM
- GI50 (ACHN renal): 18.5 µM
- TGI (ACHN renal): 39 µM
- GI50 (LOX IMVI melanoma): 20.3 µM
- TGI (LOX IMVI melanoma): 49.3 µM
- GI50 (U251 CNS): 16.4 µM
- TGI (U251 CNS): 34.6 µM
- GI50 (UACC-62 melanoma): 19.1 µM
- TGI (UACC-62 melanoma): 43.6 µM
- GI50 (OVCAR-3 ovarian): 14.5 µM
- TGI (OVCAR-3 ovarian): 27.6 µM
- GI50 (NCI/ADR-RES ovarian): 18.7 µM
- TGI (NCI/ADR-RES ovarian): 34.4 µM
- GI50 (HCT-116 colon): 23.4 µM
- TGI (HCT-116 colon): 49.6 µM
- GI50 (HCT-15 colon): 35.9 µM
- TGI (HCT-15 colon): > 100 µM
- GI50 (MDA-MB-231 breast): > 100 µM
- TGI (MDA-MB-231 breast): > 100 µM
- GI50 (M14 melanoma): 28.4 µM
- TGI (M14 melanoma): 74.9 µM
- GI50 (PC-3 prostate): 25.4 µM
- TGI (PC-3 prostate): 95.2 µM
- GI50 (OVCAR-4 ovarian): 24.5 µM
- TGI (OVCAR-4 ovarian): 81.6 µM
- GI50 (SF-295 CNS): 16.2 µM
- TGI (SF-295 CNS): 30.2 µM
- GI50 (HL-60(TB) leukemia): 38.7 µM
- TGI (HL-60(TB) leukemia): > 100 µM
- GI50 (NCI-H522 lung): 18.7 µM
- TGI (NCI-H522 lung): 38.6 µM
- GI50 (SK-MEL-2 melanoma): 18.9 µM
- TGI (SK-MEL-2 melanoma): 39.8 µM
- GI50 (MCF7 breast): 32.8 µM
- TGI (MCF7 breast): > 100 µM
- GI50 (SF-268 CNS): 30.6 µM
- TGI (SF-268 CNS): 65.2 µM
- GI50 (SK-MEL-5 melanoma): 16.8 µM
- TGI (SK-MEL-5 melanoma): 30.8 µM
- GI50 (COLO 205 colon): 17.2 µM
- TGI (COLO 205 colon): 34 µM
- GI50 (T-47D breast): 16.3 µM
- TGI (T-47D breast): 35.1 µM
- GI50 (SF-539 CNS): 19 µM
- TGI (SF-539 CNS): 35.6 µM
- GI50 (IGROV1 ovarian): 18 µM
- TGI (IGROV1 ovarian): 43.3 µM
- GI50 (SK-MEL-28 melanoma): 18 µM
- TGI (SK-MEL-28 melanoma): 45.3 µM
